Measurements reported in US9296723B2, “NAMPT inhibitors” (AbbVie Inc., priority 2012, dated 2016).
Each block holds one compound with its values, some of them ahead of it.

Columns and labels:
NAMPT [1] = molecular target: T1, NAMPT (Homo sapiens, UniProt P43490); test: Time-Resolved Fluorescence Resonance Energy Transfer (TR-FRET) Binding Assay of NAMPT; settings: 6.8 nM NAMPT, 200 nM probe, equilibrated 3 hours, no substrates
Procedure, shortened: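 Compound was mixed with enzyme, probe and antibody and equilibrated 3 h at room temperature. TR-FRET read at Ex 337 nm, Em 520/495 nm. Ratios were normalized to controls and fitted to a four-parameter logistic equation for IC50.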

NAMPT [2] = molecular target: T1, NAMPT; test: TR-FRET Binding Assay of NAMPT with PRPP; settings: 2 nM NAMPT, 2 nM probe, 200 µM PRPP and 2.5 mM ATP, equilibrated 16 hours
Procedure, shortened: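 TR-FRET probe displacement with 2 nM NAMPT, 2 nM probe and 1 nM Tb-anti-His antibody in the presence of 200 µM PRPP and 2.5 mM ATP, 2% DMSO (all final). Equilibrated 16 hours before reading to permit possible enzymatic modification of compounds.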

PC3 cells = test: NAMPT Cell Proliferation Assay (Cell Titer Glo); type: cell-based; settings: Homo sapiens, PC-3, 120 h, incubated 5 days, cell viability
Procedure, shortened: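 PC3 cells (500/well, RPMI with 10% heat-inactivated FBS) were exposed to 10-fold compound dilutions from […] for 5 days at 37 °C, 5% CO2. Viability was read with Cell Titer Glo; IC50 from sigmoidal fit of percent inhibition.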

T1 sequence (P43490 whole entry): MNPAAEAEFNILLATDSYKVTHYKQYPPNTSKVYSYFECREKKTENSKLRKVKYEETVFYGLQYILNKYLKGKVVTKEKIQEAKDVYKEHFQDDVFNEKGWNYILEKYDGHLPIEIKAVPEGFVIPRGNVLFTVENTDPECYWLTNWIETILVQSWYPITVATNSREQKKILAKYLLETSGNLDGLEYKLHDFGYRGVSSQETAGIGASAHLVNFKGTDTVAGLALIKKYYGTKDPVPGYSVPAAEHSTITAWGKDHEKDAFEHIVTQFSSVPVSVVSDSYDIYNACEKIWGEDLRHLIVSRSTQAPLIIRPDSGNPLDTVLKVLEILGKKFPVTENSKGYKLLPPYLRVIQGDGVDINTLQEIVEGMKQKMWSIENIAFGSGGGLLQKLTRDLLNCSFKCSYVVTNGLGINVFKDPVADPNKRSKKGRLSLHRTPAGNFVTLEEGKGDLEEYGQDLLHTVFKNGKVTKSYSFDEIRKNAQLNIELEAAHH

IC50 (NAMPT [1]): 17.6 nM
IC50 (NAMPT [2]): 0.249 nM
IC50 (PC3 cells): 8.33 nM
Structure (SMILES): O=C(Nc1ccc(OC2CN(C(=O)c3cccs3)C2)cc1)N1CC(c2cccnc2)C1 [Example 141, 3-(pyridin-3-yl)-N-(4-{[1-(thiophen-2-ylcarbonyl)azetidin-3-yl]oxy}phenyl)azetidine-1-carboxamide]

IC50 (NAMPT [1]): 24.6 nM
IC50 (NAMPT [2]): 0.339 nM
IC50 (PC3 cells): 7.91 nM
Structure (SMILES): O=C(Nc1ccc(OC2CN(C(=O)C3CCCC3)C2)cc1)N1CC(c2cccnc2)C1 [Example 142, N-(4-{[1-(cyclopentylcarbonyl)azetidin-3-yl]oxy}phenyl)-3-(pyridin-3-yl)azetidine-1-carboxamide]

IC50 (NAMPT [1]): 136 nM
IC50 (NAMPT [2]): 0.763 nM
IC50 (PC3 cells): 82.2 nM
Structure (SMILES): O=C(CN1CCOCC1)N1CC(Oc2ccc(NC(=O)N3CC(c4cccnc4)C3)cc2)C1 [Example 143, N-(4-{[1-(morpholin-4-ylacetyl)azetidin-3-yl]oxy}phenyl)-3-(pyridin-3-yl)azetidine-1-carboxamide]

IC50 (NAMPT [1]): 15.1 nM
IC50 (NAMPT [2]): 0.27 nM
IC50 (PC3 cells): 9.07 nM
Structure (SMILES): O=C(Nc1ccc(OC2CN(C(=O)c3ccsc3)C2)cc1)N1CC(c2cccnc2)C1 [Example 146, 3-(pyridin-3-yl)-N-(4-{[1-(thiophen-3-ylcarbonyl)azetidin-3-yl]oxy}phenyl)azetidine-1-carboxamide]

IC50 (NAMPT [1]): 27.7 nM
IC50 (NAMPT [2]): 0.321 nM
IC50 (PC3 cells): 16.7 nM
Structure (SMILES): O=C(Nc1ccc(OC2CN(C(=O)c3ccno3)C2)cc1)N1CC(c2cccnc2)C1 [Example 148, N-(4-{[1-(1,2-oxazol-5-ylcarbonyl)azetidin-3-yl]oxy}phenyl)-3-(pyridin-3-yl)azetidine-1-carboxamide]

IC50 (NAMPT [1]): 5.18 nM
IC50 (NAMPT [2]): 0.42 nM
IC50 (PC3 cells): 6.04 nM
Structure (SMILES): CC1(C(=O)N2CC(Oc3ccc(NC(=O)N4CC(c5cccnc5)C4)cc3)C2)CCCCC1 [Example 152, N-[4-({1-[(1-methylcyclohexyl)carbonyl]azetidin-3-yl}oxy)phenyl]-3-(pyridin-3-yl)azetidine-1-carboxamide]

IC50 (NAMPT [1]): 399 nM
IC50 (NAMPT [2]): 0.425 nM
IC50 (PC3 cells): 130 nM
Structure (SMILES): O=C(CN1CCCC1)N1CC(Oc2ccc(NC(=O)N3CC(c4cccnc4)C3)cc2)C1 [Example 155, 3-(pyridin-3-yl)-N-(4-{[1-(pyrrolidin-1-ylacetyl)azetidin-3-yl]oxy}phenyl)azetidine-1-carboxamide]

IC50 (NAMPT [1]): 2.71 nM
IC50 (NAMPT [2]): 0.237 nM
IC50 (PC3 cells): 74.7 nM
Structure (SMILES): CC(C)(O)C(=O)N1CCC(c2ccc(NC(=O)N3CC(c4cccnc4F)C3)cc2)CC1 [Example 156, 3-(2-fluoropyridin-3-yl)-N-{4-[1-(2-hydroxy-2-methylpropanoyl)piperidin-4-yl]phenyl}azetidine-1-carboxamide]

IC50 (NAMPT [1]): 357 nM
IC50 (NAMPT [2]): 0.574 nM
IC50 (PC3 cells): 269 nM
Structure (SMILES): O=C(CC1CCOCC1)N1CCC(Oc2ccc(NC(=O)N3CCN(c4cccnc4)CC3)cc2)CC1 [Example 162, 4-(pyridin-3-yl)-N-(4-{[1-(tetrahydro-2H-pyran-4-ylacetyl)piperidin-4-yl]oxy}phenyl)piperazine-1-carboxamide]

IC50 (NAMPT [1]): 15.9 nM
IC50 (NAMPT [2]): 0.313 nM
IC50 (PC3 cells): 25.9 nM
Structure (SMILES): CC1CC1C(=O)N1CCC(c2ccc(NC(=O)N3CC(c4cccnc4)C3)cc2)CC1 (stereo not drawn) [Example 164, N-(4-{1-[(2-methylcyclopropyl)carbonyl]piperidin-4-yl}phenyl)-3-(pyridin-3-yl)azetidine-1-carboxamide]

IC50 (NAMPT [1]): 8.41 nM
IC50 (NAMPT [2]): 0.319 nM
IC50 (PC3 cells): 23.5 nM
Structure (SMILES): CCC(C)CC(=O)N1CCC(c2ccc(NC(=O)N3CC(c4cccnc4)C3)cc2)CC1 (stereo not drawn) [Example 167, N-{4-[1-(3-methylpentanoyl)piperidin-4-yl]phenyl}-3-(pyridin-3-yl)azetidine-1-carboxamide]

Second part, the compound before the results:

Structure (SMILES): O=C(Nc1ccc(OC2CN(C(=O)C3CCCCC3)C2)cc1)N1CC(c2cccnc2)C1 [Example 139, N-(4-{[1-(cyclohexylcarbonyl)azetidin-3-yl]oxy}phenyl)-3-(pyridin-3-yl)azetidine-1-carboxamide]
IC50 (NAMPT [1]): 14.4 nM
IC50 (NAMPT [2]): 0.442 nM
IC50 (PC3 cells): 7.81 nM

Structure (SMILES): O=C(Nc1ccc(OC2CN(C(=O)C3CC3)C2)cc1)N1CC(c2cccnc2)C1 [Example 140, N-(4-{[1-(cyclopropylcarbonyl)azetidin-3-yl]oxy}phenyl)-3-(pyridin-3-yl)azetidine-1-carboxamide]
IC50 (NAMPT [1]): 43 nM
IC50 (NAMPT [2]): 0.181 nM
IC50 (PC3 cells): 26.3 nM

Structure (SMILES): O=C(Nc1ccc(OC2CN(C(=O)c3cncs3)C2)cc1)N1CC(c2cccnc2)C1 [Example 144, 3-(pyridin-3-yl)-N-(4-{[1-(1,3-thiazol-5-ylcarbonyl)azetidin-3-yl]oxy}phenyl)azetidine-1-carboxamide]
IC50 (NAMPT [1]): 25.6 nM
IC50 (NAMPT [2]): 0.313 nM
IC50 (PC3 cells): 9.04 nM

Structure (SMILES): Cc1noc(C)c1C(=O)N1CC(Oc2ccc(NC(=O)N3CC(c4cccnc4)C3)cc2)C1 [Example 145, N-[4-({1-[(3,5-dimethyl-1,2-oxazol-4-yl)carbonyl]azetidin-3-yl}oxy)phenyl]-3-(pyridin-3-yl)azetidine-1-carboxamide]
IC50 (NAMPT [1]): 90.5 nM
IC50 (NAMPT [2]): 0.6 nM
IC50 (PC3 cells): 73.9 nM

Structure (SMILES): CN1CCN(CC(=O)N2CC(Oc3ccc(NC(=O)N4CC(c5cccnc5)C4)cc3)C2)CC1 [Example 149, N-[4-({1-[(4-methylpiperazin-1-yl)acetyl]azetidin-3-yl}oxy)phenyl]-3-(pyridin-3-yl)azetidine-1-carboxamide]
IC50 (NAMPT [1]): 22.1 nM
IC50 (NAMPT [2]): 0.219 nM
IC50 (PC3 cells): 76.5 nM

Structure (SMILES): CN(C)CCC(=O)N1CC(Oc2ccc(NC(=O)N3CC(c4cccnc4)C3)cc2)C1 [Example 150, N-(4-{[1-(N,N-dimethyl-beta-alanyl)azetidin-3-yl]oxy}phenyl)-3-(pyridin-3-yl)azetidine-1-carboxamide]
IC50 (NAMPT [1]): 435 nM
IC50 (NAMPT [2]): 2.85 nM
IC50 (PC3 cells): 1050 nM

Structure (SMILES): O=C(CC1CCCC1)N1CC(Oc2ccc(NC(=O)N3CC(c4cccnc4)C3)cc2)C1 [Example 153, N-(4-{[1-(cyclopentylacetyl)azetidin-3-yl]oxy}phenyl)-3-(pyridin-3-yl)azetidine-1-carboxamide]
IC50 (NAMPT [1]): 12.4 nM
IC50 (NAMPT [2]): 0.436 nM
IC50 (PC3 cells): 8.03 nM

Structure (SMILES): CC(C)(O)C(=O)N1CCC(c2ccc(NC(=O)N3CC(c4cccnc4Cl)C3)cc2)CC1 [Example 161, 3-(2-chloropyridin-3-yl)-N-{4-[1-(2-hydroxy-2-methylpropanoyl)piperidin-4-yl]phenyl}azetidine-1-carboxamide]
IC50 (NAMPT [1]): 8.62 nM
IC50 (NAMPT [2]): 5.79 nM
IC50 (PC3 cells): 905 nM

Structure (SMILES): CCCCC(=O)N1CCC(c2ccc(NC(=O)N3CC(c4cccnc4)C3)cc2)CC1 [Example 163, N-[4-(1-pentanoylpiperidin-4-yl)phenyl]-3-(pyridin-3-yl)azetidine-1-carboxamide]
IC50 (NAMPT [1]): 7.23 nM
IC50 (NAMPT [2]): 0.295 nM
IC50 (PC3 cells): 34.4 nM

Structure (SMILES): O=C(CC1C[C@@H]2CC[C@H]1C2)N1CCC(c2ccc(NC(=O)N3CC(c4cccnc4)C3)cc2)CC1 (stereo partly drawn) [Example 165, N-(4-{1-[(1S,4R)-bicyclo[2.2.1]hept-2-ylacetyl]piperidin-4-yl}phenyl)-3-(pyridin-3-yl)azetidine-1-carboxamide]
IC50 (NAMPT [1]): 14.4 nM
IC50 (NAMPT [2]): 0.389 nM
IC50 (PC3 cells): 61.9 nM

Structure (SMILES): CC(C)CCC(=O)N1CCC(c2ccc(NC(=O)N3CC(c4cccnc4)C3)cc2)CC1 [Example 166, N-{4-[1-(4-methylpentanoyl)piperidin-4-yl]phenyl}-3-(pyridin-3-yl)azetidine-1-carboxamide]
IC50 (NAMPT [1]): 17.2 nM
IC50 (NAMPT [2]): 0.337 nM
IC50 (PC3 cells): 66.4 nM
